Data as given in patent publication US20260049084A1, “ENPP1 MODULATORS AND PRODUCTS AND USES THEREOF” (Gossamer Bio Services, Inc., priority 2022, published 2026).

Tests used:
[1] = biological target: Recombinant human ENPP1 protein (Homo sapiens (Human), UniProt P22413); assay: ENPP1 cGAMP Biochemical Assay; conditions: 0.5 nM ENPP1, 1000 nM 2′3′-cGAMP substrate, TR-FRET
Procedure: ENPP1 cGAMP Biochemical Assay
Compounds were added to 384 well Proxiplate (PerkinElmer, Waltham MA) at 100 nl/well from DMSO stocks using Echo (Labcyte, San Jose CA). Recombinant human ENPP1 protein (R&D Systems, Minneapolis MN) was prepared in assay buffer (50 mM Tris pH7.5, 1 mM TCEP pH7.0, 2 mM MgCl2 and 0.005% Tween20) and added at 10 μl/well. The plate was sealed, centrifuged at 1000 rpm for 1 minute and incubated at room temperature for 30 minutes before 5 μl substrate 2′3′-cGAMP (R&D Systems, Minneapolis MN) in assay buffer was added to each well to a final concentration of 0.5 nM ENPP1 and 1000 nM 2′3′-cGAMP. The plate was sealed and centrifuged at 1000 rpm for 1 minute again. After incubation at 25° C. for 60 minutes, Terbium labelled AMP/GMP antibody and AMP/GMP HiLyte647 Tracer (BellBrook Labs, Fitchburg WI) in detection buffer (50 mM Tris pH7.5, 20 mM EDTA and 0.1% Prionex) were added to the reaction mixture to a final concentration of 2 nM (5 μl/well). The assay plate was incubated at room temperature for 120 minutes. TR-FRET signal was detected using Envision (PerkinElmer, Waltham MA).

[2] = biological target: carbonic anhydrase I enzyme (Homo sapiens (Human), UniProt P00915); assay: Carbonic Anhydrase 1 Enzymatic Assay; type: biochemical; conditions: enzyme from human erythrocyte, 500 μM 4-nitrophenyl acetate, absorbance 400 nm; read-out: CA I IC50
Chain of carbonic anhydrase I enzyme (P00915 whole entry): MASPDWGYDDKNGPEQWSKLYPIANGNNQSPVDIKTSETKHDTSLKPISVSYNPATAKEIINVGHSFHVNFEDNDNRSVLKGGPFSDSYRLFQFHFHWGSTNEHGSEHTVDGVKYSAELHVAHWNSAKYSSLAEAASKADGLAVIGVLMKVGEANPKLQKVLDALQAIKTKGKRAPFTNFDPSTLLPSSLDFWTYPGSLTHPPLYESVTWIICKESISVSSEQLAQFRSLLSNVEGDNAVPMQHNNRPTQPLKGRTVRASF
Procedure: Carbonic Anhydrase 1 Enzymatic Assay
(§1) Test compound and/or vehicle was preincubated with carbonic anhydrase I enzyme (15 μg/ml) isolated from human erythrocyte in reaction buffer (50 mM MOPS solution pH 7.5) for 15 minutes at 25° C. The reaction was initiated by addition of 500 μM 4-nitrophenyl acetate and incubated for 30 minutes. The plate was read on a spectrophotometer (Absorbance: 400 nm)

[3] = biological target: Recombinant human ENPP3 protein (Homo sapiens (Human), UniProt O14638); assay: ENPP3 cGAMP Biochemical Assay; conditions: 70.5 nM ENPP3, 120 μM 2′3′-cGAMP substrate, TR-FRET
Chain of Recombinant human ENPP3 protein (O14638 whole entry): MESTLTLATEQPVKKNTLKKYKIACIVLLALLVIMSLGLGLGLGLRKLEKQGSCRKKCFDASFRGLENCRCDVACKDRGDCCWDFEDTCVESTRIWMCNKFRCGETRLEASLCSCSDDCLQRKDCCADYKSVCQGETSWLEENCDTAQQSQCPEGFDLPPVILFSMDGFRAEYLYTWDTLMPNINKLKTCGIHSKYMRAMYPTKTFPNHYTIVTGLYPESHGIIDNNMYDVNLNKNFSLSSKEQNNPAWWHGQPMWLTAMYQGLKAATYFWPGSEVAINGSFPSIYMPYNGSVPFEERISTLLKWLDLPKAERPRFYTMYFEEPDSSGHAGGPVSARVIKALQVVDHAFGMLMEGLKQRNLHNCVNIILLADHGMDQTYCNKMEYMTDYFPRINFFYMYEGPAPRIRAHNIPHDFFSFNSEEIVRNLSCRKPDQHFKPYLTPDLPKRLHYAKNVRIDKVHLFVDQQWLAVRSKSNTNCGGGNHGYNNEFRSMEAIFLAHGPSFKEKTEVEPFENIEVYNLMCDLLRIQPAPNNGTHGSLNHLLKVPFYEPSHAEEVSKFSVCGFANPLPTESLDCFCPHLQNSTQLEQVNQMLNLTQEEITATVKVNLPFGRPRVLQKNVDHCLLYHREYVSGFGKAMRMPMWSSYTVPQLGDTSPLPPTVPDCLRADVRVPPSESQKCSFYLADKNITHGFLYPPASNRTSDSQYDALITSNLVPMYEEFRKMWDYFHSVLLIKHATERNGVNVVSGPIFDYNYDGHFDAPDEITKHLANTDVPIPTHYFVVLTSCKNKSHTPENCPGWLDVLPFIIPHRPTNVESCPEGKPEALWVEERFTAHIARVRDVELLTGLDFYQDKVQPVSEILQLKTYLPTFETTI
Procedure: ENPP3 cGAMP Biochemical Assay
Compounds were added to 384 well Proxiplate (PerkinElmer, Waltham MA) at 100 nl/well from DMSO stocks using Echo (Labcyte, San Jose CA). Recombinant human ENPP3 protein (Acro Biosystems, Newwark DE) was prepared in assay buffer (50 mM Tris pH7.5, 1 mM TCEP pH7.0, 2 mM MgCl2, 2 mM CaCl2), 2 mM ZnCl2 and 0.005% Tween20) and added at 2 μl/well. The plate was sealed, centrifuged at 1000 rpm for 1 minute and incubated at room temperature for 30 minutes before 2 μl substrate 2′3′-cGAMP (R&D Systems, Minneapolis MN) in assay buffer was added to each well to a final concentration of 70.5 nM ENPP3 and 120 μM 2′3′-cGAMP. The plate was sealed and centrifuged at 1000 rpm for 1 minute again. After incubation at 25° C. for 60 minutes, Terbium labelled AMP/GMP antibody and AMP/GMP HiLyte647 Tracer (BellBrook Labs, Fitchburg WI) in detection buffer (50 mM Tris pH7.5, 20 mM EDTA and 0.1% Prionex) were added to the reaction mixture to a final concentration of 475 nM and 3 nM respectively. The assay plate was incubated at room temperature for 120 minutes. TR-FRET signal was detected using Envision (PerkinElmer, Waltham MA).

[4] = biological target: carbonic anhydrase II enzyme (Homo sapiens (Human), UniProt P00918); assay: Carbonic Anhydrase 2 Enzymatic Assay; type: biochemical; conditions: enzyme from human erythrocyte, 500 μM 4-nitrophenyl acetate, absorbance 400 nm; read-out: CA II IC50
Procedure: Carbonic Anhydrase 2 Enzymatic Assay
as §1, with “II” for “I”

Chain of Recombinant human ENPP1 protein (P22413 whole entry): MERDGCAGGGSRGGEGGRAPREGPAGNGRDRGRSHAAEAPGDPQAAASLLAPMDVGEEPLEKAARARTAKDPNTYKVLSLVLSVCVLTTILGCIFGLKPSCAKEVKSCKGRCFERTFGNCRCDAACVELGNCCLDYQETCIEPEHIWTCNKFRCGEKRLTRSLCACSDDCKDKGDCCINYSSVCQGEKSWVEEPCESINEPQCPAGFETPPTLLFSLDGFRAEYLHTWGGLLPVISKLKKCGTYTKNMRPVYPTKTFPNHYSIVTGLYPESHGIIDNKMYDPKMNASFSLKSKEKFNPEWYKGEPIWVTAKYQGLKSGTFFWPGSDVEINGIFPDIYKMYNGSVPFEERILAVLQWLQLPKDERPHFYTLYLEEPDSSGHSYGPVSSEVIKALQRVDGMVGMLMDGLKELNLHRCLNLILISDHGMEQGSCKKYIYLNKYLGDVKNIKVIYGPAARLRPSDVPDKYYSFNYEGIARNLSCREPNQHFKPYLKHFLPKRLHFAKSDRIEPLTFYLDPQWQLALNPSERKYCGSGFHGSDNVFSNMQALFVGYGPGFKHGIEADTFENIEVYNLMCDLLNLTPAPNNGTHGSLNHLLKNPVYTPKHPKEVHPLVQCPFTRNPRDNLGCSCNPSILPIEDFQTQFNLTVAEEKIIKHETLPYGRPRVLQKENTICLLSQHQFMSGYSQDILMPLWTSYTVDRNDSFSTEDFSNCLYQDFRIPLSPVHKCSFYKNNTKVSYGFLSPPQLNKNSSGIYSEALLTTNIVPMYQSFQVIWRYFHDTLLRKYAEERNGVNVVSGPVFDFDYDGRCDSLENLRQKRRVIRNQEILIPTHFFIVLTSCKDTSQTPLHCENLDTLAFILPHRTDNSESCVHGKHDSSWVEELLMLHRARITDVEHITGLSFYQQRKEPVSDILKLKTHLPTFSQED

Row | SMILES | IC50 [1] [nM] | IC50 [2] [nM] | IC50 [3] [nM] | IC50 [4] [nM]
1 | CCn1ncc2c(NCC3CCN(S(=N)(N)=O)CC3)ccnc21 (stereo not shown) [Compound 1A, 4-(((1-ethyl-1H-pyrazolo[3,4-b]pyridin-4-yl)amino)methyl)piperidine-1-sulfonimidamide] | 10 to 100 | 100 to 1000 | 100 to 1000 | ≥ 1000
2 | N=S(N)(=O)c1ccc(CNc2ccnc3[nH]nc(-c4ccccc4)c23)cc1 (stereo not shown) [Compound 1B, 4-(((3-phenyl-1H-pyrazolo[3,4-b]pyridin-4-yl)amino)methyl)benzenesulfonimidamide] | 10 to 100 | 100 to 1000 | 10 to 100 | 100 to 1000
3 | CCn1ncc2c(NCc3ccc(S(=N)(N)=O)cc3)ccnc21 (stereo not shown) [Compound 2A, 4-(((1-ethyl-1H-pyrazolo[3,4-b]pyridin-4-yl)amino)methyl)benzene sulfonimidamide] | 10 to 100 | 100 to 1000 | ≥ 1000 | ≥ 1000
4 | CCn1nc(Br)c2c(NCc3ccc(S(=N)(N)=O)cc3)ccnc21 (stereo not shown) [Compound 2B, 4-(((3-bromo-1-ethyl-1H-pyrazolo[3,4-b]pyridin-4-yl)amino)methyl)benzenesulfonimidamide] | 10 to 100 | 10 to 100 | 100 to 1000 | ≥ 1000
5 | CCn1ncc2c(NCc3ccc(S(N)(=O)=NC)cc3)ccnc21 (stereo not shown) [Compound 3A, 4-(((1-ethyl-1H-pyrazolo[3,4-b]pyridin-4-yl)amino)methyl)-N′-methylbenzenesulfonimidamide] | 100 to 1000 | ≥ 1000 | ≥ 1000 | ≥ 1000
6 | CCn1ncc2c(NCC3CCN(S(C)(=N)=O)CC3)ccnc21 (stereo not shown) [Compound 4A, 1-ethyl-N-((1-(S-methylsulfonimidoyl)piperidin-4-yl)methyl)-1H-pyrazolo[3,4-b]pyridin-4-amine] |  | ≥ 1000 | ≥ 1000 | ≥ 1000
7 | CCn1ncc2c(NCc3ccc(S(N)(=O)=NC#N)cc3)ccnc21 (stereo not shown) [Compound 12G, N′-cyano-4-(((1-ethyl-1H-pyrazolo[3,4-b]pyridin-4-yl)amino)methyl)benzenesulfonimidamide] |  | ≥ 1000 | 100 to 1000 | ≥ 1000
8 | C#CCn1nc(Cl)c2c(NCC3CCN([S@@](C)(=N)=O)CC3)ccnc21 [Compound 13C, (R)-3-chloro-N-((1-(S-methylsulfonimidoyl)piperidin-4-yl)methyl)-1-(prop-2-yn-1-yl)-1H-pyrazolo[3,4-b]pyridin-4-amine] | < 10 |  | ≥ 1000 | 
9 | CS(=N)(=O)N1CCC(CNc2ccnc3c2c(Cl)nn3CC#N)CC1 (stereo not shown) [Compound 13D, 2-(3-chloro-4-(((1-(S-methylsulfonimidoyl)piperidin-4-yl)methyl)amino)-1H-pyrazolo[3,4-b]pyridin-1-yl)acetonitrile] | < 10 |  | 10 to 100 | 
10 | C[S@@](=N)(=O)N1CCC(CNc2ccnc3c2c(Cl)nn3CC#N)CC1 [Compound 13E, (S)-2-(3-chloro-4-(((1-(S-methylsulfonimidoyl)piperidin-4-yl)methyl)amino)-1H-pyrazolo[3,4-b]pyridin-1-yl)acetonitrile] | < 10 |  | 10 to 100 | 
11 | C[S@](=N)(=O)N1CCC(CNc2ccnc3c2c(Cl)nn3CC#N)CC1 [Compound 13F, (R)-2-(3-chloro-4-(((1-(S-methylsulfonimidoyl)piperidin-4-yl)methyl)amino)-1H-pyrazolo[3,4-b]pyridin-1-yl)acetonitrile] | 100 to 1000 |  | ≥ 1000 | 
12 | CCn1nc(Cl)c2c(NCC3CCN([S@@](C)(=N)=O)CC3)ccnc21 [Compound 13G, (R)-3-chloro-1-ethyl-N-((1-(S-methylsulfonimidoyl)piperidin-4-yl)methyl)-1H-pyrazolo[3,4-b]pyridin-4-amine] | 10 to 100 |  | ≥ 1000 | 
13 | CCn1nc(Cl)c2c(NCC3CCN([S@](C)(=N)=O)CC3)ccnc21 [Compound 13H, (S)-3-chloro-1-ethyl-N-((1-(S-methylsulfonimidoyl)piperidin-4-yl)methyl)-1H-pyrazolo[3,4-b]pyridin-4-amine] | 10 to 100 |  | ≥ 1000 | 
14 | CCn1nc(Cl)c2c(NCC3CCN(S(=N)(=O)CCOC)CC3)ccnc21 (stereo not shown) [Compound 14B, 3-chloro-1-ethyl-N-((1-(2-methoxyethylsulfonimidoyl)piperidin-4-yl)methyl)-1H-pyrazolo[3,4-b]pyridin-4-amine] | 10 to 100 |  | ≥ 1000 | 
15 | CCn1nc(Cl)c2c(NCC3CCN([S@@](=N)(=O)CCOC)CC3)ccnc21 [Compound 14C, (R)-3-chloro-1-ethyl-N-((1-(2-methoxyethylsulfonimidoyl)piperidin-4-yl)methyl)-1H-pyrazolo[3,4-b]pyridin-4-amine] | 10 to 100 |  | ≥ 1000 | 
16 | CCn1nc(Cl)c2c(NCC3CCN([S@](=N)(=O)CCOC)CC3)ccnc21 [Compound 14D, (S)-3-chloro-1-ethyl-N-((1-(2-methoxyethylsulfonimidoyl)piperidin-4-yl)methyl)-1H-pyrazolo[3,4-b]pyridin-4-amine] | 10 to 100 |  | ≥ 1000 | 
17 | CCn1nc(Cl)c2c(NCC3CCN(S(=N)(=O)CCC(=O)O)CC3)ccnc21 (stereo not shown) [Compound 14F, 3-(4-(((3-chloro-1-ethyl-1H-pyrazolo[3,4-b]pyridin-4-yl)amino)methyl)piperidine-1-sulfonimidoyl)propanoic acid] | < 10 |  | 100 to 1000 | 
18 | C#CCn1nc(Cl)c2c(NCC3CCN([S@@](C)(=O)=NC#N)CC3)ccnc21 [Compound 14I, (S)-N-((4-(((3-chloro-1-(prop-2-yn-1-yl)-1H-pyrazolo[3,4-b]pyridin-4-yl)amino)methyl)piperidin-1-yl)(methyl)(oxo)-λ6-sulfaneylidene)cyanamide] | < 10 |  | ≥ 1000 | 
19 | C#CCn1nc(Cl)c2c(NCC3CCN([S@](C)(=O)=NC#N)CC3)ccnc21 [Compound 14J, (R)-N-((4-(((3-chloro-1-(prop-2-yn-1-yl)-1H-pyrazolo[3,4-b]pyridin-4-yl)amino)methyl)piperidin-1-yl)(methyl)(oxo)-λ6-sulfaneylidene)cyanamide] | 100 to 1000 |  | ≥ 1000 | 
20 | CN=S(N)(=O)N1CCC(CNc2ccnc3c2c(Cl)nn3CC#N)CC1 (stereo not shown) [Compound 15A, 4-(((3-chloro-1-(cyanomethyl)-1H-pyrazolo[3,4-b]pyridin-4-yl)amino)methyl)-N′-methylpiperidine-1-sulfonimidamide] | < 10 |  | 10 to 100 | 
21 | N#CCn1nc(Cl)c2c(NCC3CCN(S(N)(=O)=NC#N)CC3)ccnc21 (stereo not shown) [Compound 15B, 4-(((3-chloro-1-(cyanomethyl)-1H-pyrazolo[3,4-b]pyridin-4-yl)amino)methyl)-N′-cyanopiperidine-1-sulfonimidamide] | < 10 |  | < 10 | 
22 | C#CCn1nc(Cl)c2c(NCC3CCN(S(=N)(N)=O)CC3)ccnc21 (stereo not shown) [Compound 15I, 4-(((3-chloro-1-(prop-2-yn-1-yl)-1H-pyrazolo[3,4-b]pyridin-4-yl)amino)methyl)piperidine-1-sulfonimidamide] | < 10 |  | 100 to 1000 | 
23 | CCn1ncc2c(Oc3ccc(S(N)(=O)=NCC4CC4)cc3)ccnc21 (stereo not shown) [Compound 16A, N′-(cyclopropylmethyl)-4-((1-ethyl-1H-pyrazolo [3,4-b]pyridin-4-yl)oxy)benzenesulfonimidamide] | ≥ 1000 |  | ≥ 1000 | 
